# Measured values: patent US20200268847A1, “Methods of Treating Newly Diagnosed Multiple Myeloma with a Combination of An Antibody that Specifically Binds CD38, Lenalidomide and Dexamethasone” (Janssen Biotech, Inc., priority 2019, published 2020)
# Legend:
# [1] = test system: transplant-ineligible newly diagnosed multiple myeloma (NDMM); test: MAIA subgroup analysis by age (<75 vs ≥75 y): efficacy; format: in vivo, human; conditions: for PFS HR (95% CI): DRd vs Rd
# Description: To examine the impact of age on the efficacy and safety of D-Rd vs Rd in this patient population, a subgroup analysis was conducted within patients <75 and >75 y of age.
# Transplant-ineligible NDMM patients were randomized 1:1 to Rd±DARA; stratification was based on age (<75 vs >75 years), ISS (I, II, III), and region (North America vs Other). In standard Rd dosing, patients received 28-day cycles of lenalidomide 25 mg PO QD on Days 1-21 and dexamethasone 40 mg PO on Days 1, 8, 15 and 22 until progression. A portion of patients received 10 mg lenalidomide and 20 mg dexamethasone at the beginning of the treatment. In the DRd arm, patients received daratumumab (DARZALEX®) 16 mg/kg IV QW for Cycles 1-2, Q2W for Cycles 3-6, and Q4W thereafter until progression. PFS was the primary endpoint.
# [2] = test system: patients with newly diagnosed multiple myeloma ineligible for HDC and ASCT; conditions: in vivo
# Description: Safety will be measured by adverse events, laboratory test results, ECGs, vital sign measurements, physical examination findings, and assessment of ECOG performance status score.
# Safety analyses included adverse event assessment graded in severity according to NCI-CTCAE version 4, electrocardiograms, clinical laboratory testing, physical examinations, and vital signs.
# The safety population included patients who received any dose of trial treatment.
# [3] = test system: newly diagnosed multiple myeloma, patients ineligible for HDC and ASCT; test: Phase 3 MAIA study (NCT02252172), interim analysis: progression-free survival, response by IMWG criteria, survival; format: in vivo, human
# Description: Subject participation will include a Screening Phase, a Treatment Phase, and a Follow-up Phase. The Screening Phase will be up to 21 days before Cycle 1, Day 1. The Treatment Phase will extend from Day 1 of Cycle 1 until discontinuation of all study treatment. […] This will equate to […] of dosing at the start of the study and a total of 23 doses in the first year. Lenalidomide will be administered at a dose of 25 mg orally (PO) on Days 1 through 21 of each 28-day cycle, and dexamethasone will be administered at a dose of 40 mg once a week. Subjects in both treatment arms will continue lenalidomide and dexamethasone until disease progression or unacceptable toxicity. […] Randomization will be stratified by International Staging System (I vs II vs III), region (North America vs Other), and age (<75 vs >75), using an equal allocation ratio of 1:1.
# The primary endpoint is PFS, which is defined as the duration from the date of randomization to either progressive disease, or death, whichever occurs first. Disease progression will be determined according to the IMWG criteria.
# The secondary efficacy endpoints include: • Time to disease progression (TTP) is defined as the time from the date of randomization to the date of first documented evidence of PD, as defined in the IMWG criteria. […] Disease progression will be based on investigator judgment. For those subjects who are still alive and not yet progressed on the next line of treatment, they will be censored on the last date of follow-up. • Overall survival (OS), measured from the date of randomization to the date of the subject's death. […] For subjects without response, data will be censored either at the date of progressive disease or, in the absence of progressive disease, at the last disease evaluation before the start of subsequent anti-myeloma therapy. • Duration of response, calculated from the date of initial documentation of a response (PR or better) to the date of first documented evidence of progressive disease, as defined in the IMWG criteria. For subjects who have not progressed, data will be censored at the last disease evaluation before the start of any subsequent anti-myeloma therapy. • To evaluate clinical efficacy of DRd in high risk molecular subgroups compared to Rd alone. • To evaluate the impact of DRd compared to Rd on patient-reported perception of global health.
# Disease evaluations will be performed by a central laboratory (unless otherwise specified). This study will use the IMWG consensus recommendations for multiple myeloma treatment response criteria (Durie et al., Leukemia, 20:[…], 2006, Rajkumar et al., Blood, 117:4691-4695, 2011) presented in Table 1. For quantitative immunoglobulin, M-protein, and immunofixation measurements in serum and 24 hour urine, the investigator will use results provided by the central laboratory.
# The primary endpoint was progression-free survival. The study protocol is described in Example 1.
# Patients were stratified by International Staging System (ISS; I vs. II vs. III), region (North America vs. Other), and age (<75 years vs. >75 years).
# During each 28-day cycle, all patients received oral lenalidomide (25 mg, Days 1-21) and oral dexamethasone (40 mg, Days 1, 8, 15, and 22) until disease progression or unacceptable toxicity. For patients older than 75 years of age or with body mass index less than 18.5 kg/m^2, dexamethasone was administered at a dose of 20 mg once weekly. […] Pre-infusion medications were administered to manage infusion reactions.
# The primary endpoint was progression-free survival (time from date of randomization to either disease progression or death).
# [4] = ITT population, median follow-up 28.0 months
substance,measurement,setting,value
daratumumab (DARZALEX®) group: daratumumab (DARZALEX®) in combination with lenalidomide and dexamethasone,30-mo PFS,[1]; <75 y,75%
same,MRD-negative rate (10^−5),[1]; <75 y,28%
same,ORR,[1]; <75 y,95%
same,≥CR,[1]; <75 y,52%
same,≥VGPR,[1]; <75 y,81%
same,PFS HR (95% CI),"[1]; <75 y, listed as D-Rd",0.50
same,PFS HR (95% CI),"[1]; <75 y, listed as DRd",0.50 (0.35-0.71)
same,PFS Median,"[1]; <75 y, median follow-up 28 months, listed as D-Rd",not reached
same,30-mo PFS,[1]; ≥75 y,66%
same,MRD-negative rate (10^−5),[1]; ≥75 y,19%
same,ORR,[1]; ≥75 y,90%
same,≥CR,[1]; ≥75 y,41%
same,≥VGPR,[1]; ≥75 y,77%
same,PFS HR (95% CI),"[1]; ≥75 y, listed as D-Rd",0.63
same,PFS HR (95% CI),"[1]; ≥75 y, listed as DRd",0.63 (0.44-0.92)
same,discontinuation of trial treatment due to infections,[2],0.5%
same,rate of any-grade infections,[2],86.3%
same,rate of grade 3 or 4 infections,[2],32.1%
same,events of progression or death while receiving the next line of therapy,[3]; 155 events in total,68 patients
same,patients with disease progression events (time-to-event analysis of disease progression),[3]; 179 events in total,17.9%
same,reduction of the risk of progression or death,"[3]; DRd vs Rd, primary analysis of MAIA",44%
same,Kaplan-Meier estimate of the 30-month rate of progression-free survival,[3]; ITT population,70.6%
same,median time to progression,[3]; ITT population,not being reached
same,Overall response: No. with response,"[3]; ITT population (N = 368 vs 369), median follow-up 28.0 months",342
same,median overall survival,"[3]; ITT population, long-term follow-up ongoing",not reached
same,median progression-free survival,"[3]; ITT population, median follow-up 28 months",not reached
same,Best overall response: Complete response,[3]; [4],63 (17.1) no. (%)
same,Best overall response: Complete response or better,[3]; [4],175 (47.6) no. (%)
same,Best overall response: Partial response,[3]; [4],50 (13.6) no. (%)
same,Best overall response: Progressive disease,[3]; [4],1 (0.3) no. (%)
same,Best overall response: Response could not be evaluated,[3]; [4],14 (3.8) no. (%)
same,Best overall response: Stringent complete response,[3]; [4],112 (30.4) no. (%)
same,Best overall response: Very good partial response,[3]; [4],117 (31.8) no. (%)
same,Best overall response: Very good partial response or better,[3]; [4],292 (79.3) no. (%)
same,Overall response rate,[3]; [4],92.9%
same,rate of complete response or better,"[3]; ITT population, P<0.0001",47.6%
same,rate of very good partial response or better,"[3]; ITT population, P<0.0001",79.3%
same,treatment discontinued due to progressive disease,"[3]; at clinical cutoff date Sep. 24, 2018",14.6%
same,36-month rate of progression-free survival 2,[3]; in vivo,77.1%
same,median duration of response,[3]; in vivo,not reached
same,median time to complete response or better,[3]; in vivo,10.4 months
same,median time to first response among responders,[3]; in vivo,1.05 months
same,patients with events of disease progression or death,"[3]; median follow-up 28.0 months, 240 events in total",26.4%
same,deaths,"[3]; number of deaths, 138 in total, median follow-up 28.0 months",62
same,median progression-free survival 2,[3]; progression on next line of therapy or death,not reached
